PubChem BioAssay (NCI)
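Method: 48-hour compound exposure of cells in 96-well plates, five concentrations, linear interpolation of endpoints. The concentration for 50% growth inhibition is given as GI50. At the TGI there is no net growth.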

What was measured:
Experiment in all cases: NCI tumour cell line growth inhibition, 48 h
HCC-2998 colon = system: HCC-2998 colon
HCT-15 colon = system: HCT-15 colon
MDA-MB-231 breast = system: MDA-MB-231 breast
RXF 393 renal = system: RXF 393 renal
LOX IMVI melanoma = system: LOX IMVI melanoma
SNB-75 CNS = system: SNB-75 CNS
U251 CNS = system: U251 CNS
SF-295 CNS = system: SF-295 CNS
IGROV1 ovarian = system: IGROV1 ovarian
HCT-116 colon = system: HCT-116 colon

SMILES	TGI (HCC-2998 colon) [µM]	TGI (HCT-15 colon) [µM]	TGI (MDA-MB-231 breast) [µM]	TGI (RXF 393 renal) [µM]	TGI (LOX IMVI melanoma) [µM]	TGI (SNB-75 CNS) [µM]	TGI (U251 CNS) [µM]	TGI (SF-295 CNS) [µM]	TGI (IGROV1 ovarian) [µM]	TGI (HCT-116 colon) [µM]	GI50 (HCC-2998 colon) [µM]	GI50 (HCT-15 colon) [µM]	GI50 (MDA-MB-231 breast) [µM]	GI50 (RXF 393 renal) [µM]	GI50 (LOX IMVI melanoma) [µM]	GI50 (SNB-75 CNS) [µM]	GI50 (U251 CNS) [µM]	GI50 (SF-295 CNS) [µM]	GI50 (IGROV1 ovarian) [µM]
CC(=NNC(=S)Nc1ccccc1)c1cccc(C(C)=NNC(=S)Nc2ccccc2)n1	> 100	> 100	> 100	36.6	> 100	> 100	> 100	> 42	> 50.2	> 100									
Cn1c(SCc2ccc(F)cc2)nnc1C12CC3CC(CC(C3)C1)C2	> 100	> 100	94.5	> 100	45.6	> 100	> 100	> 100	78.2	> 100									
NC(=O)c1c(NC(=O)c2ccccc2)sc2c1CCC(=O)C2	11	1.93	22.9	5.46	19.5	6.05	26.7	7.94	13.3		2.1	0.375	2.3	1.17	1.15	1.23	0.955	2.69	1.01
COc1ccc(-c2nc(SCC(=O)NNC(=S)Nc3ccccc3)[nH]c2-c2ccc(OC)cc2)cc1	29.3	52	95.4	43.9	37.9	> 100	32	39.8	> 100	78									
COC1=CC(=O)c2c(c(-c3nc(C)cs3)cn2C)C1=O	18	14.7	72.6	77.8	22.8	5.42	> 100	9.72	20.5	30.8									
NS(=O)(=O)c1ccc(NC(=S)/N=C/C2=C(O)c3ccccc3C2=O)cc1	> 100	> 100	> 100	> 100	> 100	76.4	> 100	> 100	> 100	> 100									
O=C1OC(C2Cc3ccc4ccccc4c3C2=O)c2ccccc21 (configuration not stated)	> 100	> 100	> 100	49.5	> 100	> 100	> 100	> 100	> 100	> 100									
N[C@@H](Cc1ccccc1)C(=O)N1CCC[C@@H]1P(=O)(Oc1ccccc1)Oc1ccccc1	> 100	> 100	> 100	> 100	> 100	> 100	> 100	> 100	> 100	> 100									
Cc1nc(C)c(C(=O)NNC(=O)C[N+](C)(C)C)cc1C(=O)NNC(=O)C[N+](C)(C)C	> 100	> 100	> 100	> 100	> 100	> 100	> 100	> 100	> 100	> 100									
NCCCN1c2ccccc2Sc2ccc(Cl)cc21	4.2	> 10	> 8.72	> 10	7.31	> 10	> 10	> 10	> 10	7.03									
CC1=CCC([C@@](C)(O)CCCC(C)(C)N=C=S)CC1 (some centres not stated)	32.4	34.2	36.7	29.6	29.6	32.4	32.9	36.3	40.3	26.6									
Cc1ccc(S(=O)(=O)n2c3c(c4ccccc42)CCN2C[C@H]([C@H](C)Br)CC[C@@H]32)cc1	> 100	> 100	> 100	> 100	> 100	> 100	> 100	> 100	> 100										
Oc1cc(Cl)cc2cccnc12	> 70	> 100	39.7	42.9	28	> 100	> 47.9	15.9	5.12	> 23.3									
CC1(C)OC[C@@H](O)[C@H](C#N)CO1	> 100	> 100	> 100	> 100	> 100	> 100	> 100	> 100		> 100									
CCCNc1ncnc2c1ncn2C	> 100	> 100	> 100	> 100	> 100	> 100	> 100	> 100	> 100	> 100									
O=c1oc2cc(O)ccc2c(O)c1C(c1ccccc1)c1c(O)c2ccc(O)cc2oc1=O	> 100	> 100	> 100	> 100	> 100	> 100	> 100	> 100	> 100	> 100									
CCCCCC#CCOC(=O)C(=[N+]=[N-])P(=O)(c1ccccc1)c1ccccc1	> 10	> 10	> 10	> 10	> 10	> 10	> 10	> 10	> 10	> 10									
CC(C)(C)[Si](C)(C)OCC1OC(n2ccc(=O)[nH]c2=O)C(O[Si](C)(C)C(C)(C)C)/C1=C/C#N (configuration not stated)	> 100	> 100	> 83.5	11.9	> 51.2	> 100	> 44	> 81.4	> 100	> 53.2									
CC(C)c1cc2c(c(O)c1O)[C@@]1(C(=O)O)CCCC(C)(C)[C@@H]1CC2	28.8	> 100	86.3	66.7	53	34	30.3	68.5	36.9	> 100									
S=c1c2cn[nH]c2nc2scc(-c3ccc(Cl)cc3)n12	32.5	26.1	> 100	17.5	23.3	28.2	25.8			27.9									
O=C1C=C/C(=N\N=C(c2ccccc2)c2ccccc2)O1	> 10	> 10	> 10	> 10	> 10	> 10		> 10	> 10										
